Assay results published in patent publication US20100292472A1, “PROPHYLACTIC AND THERAPEUTIC MEDICINE FOR MALARIA” (priority 2008, published 2010).
Read-outs that look alike come from different tables or passages of the source.

Assays:
P. falciparum strain 3D7 = test: Test for growth inhibitory activity against P. falciparum (infected erythrocytes, Giemsa thin blood film); type: cell-based, Plasmodium falciparum; details: for EC50: read-out: ED50 (50% growth inhibition concentration, EC50)
Method: To investigate growth inhibitory activity against a laboratory strain 3D7 of P. falciparum, the following various compounds were tested: inabenfide (Wako Pure Chemicals, Osaka, Japan), uniconazole P (Wako Pure Chemicals, Osaka, Japan), paclobutrazol (Wako Pure Chemicals, Osaka, Japan), AMO-1618 (CALBIOCHEM, La Jolla, Calif.) and FC-907 as gibberellin inhibitors; thidiazuron (Wako Pure Chemicals, Osaka, Japan), 6-benzyl aminopurine (Wako Pure Chemicals, Osaka, Japan), trans-zeatin (Wako Pure Chemicals, Osaka, Japan) and cis-zeatin (Sigma) as cytokinins; and α-aminooxy acetic acid (Wako Pure Chemicals, Osaka, Japan) as an ethylene inhibitor.
As a culture medium for the P. falciparum strain 3D7, filter-sterilized RPMI 1640 (pH 7.4) containing 10% (v/v) human serum and human erythrocytes at 3% hematocrit (the ratio of erythrocytes in a suspension thereof) was prepared. Each compound was dissolved at predetermined concentrations in an appropriate solvent (water, ethanol or DMSO) and added to wells. To each well, 3D7-infected erythrocytes were added at a starting parasitemia of 0.1% and the total volume was adjusted to 2.5 ml with the culture medium. The plates were incubated for 3 days. Control cultures were prepared so that instead of each compound solution, the equal volume of the corresponding solvent alone was contained, and similarly incubated. After the incubation, a thin blood film from each culture was prepared and stained with Giemsa (E. Merck, Germany). A total of 3000-erythrocytes/1 thin blood film were examined microscopically (immersed in oil, magnified to 1000 times), after which the malarial infection rate was determined using the equation below. The culture was maintained at 37° C. in a CO2—O2—N2 incubator (5% CO2, 5% O2, and 90% N2 atmosphere). The experiments were performed at least twice and each treatment was performed in triplicate. By comparison of the malarial infection rates obtained in control and compound-treated samples, the efficacy of each compound was assessed.
Malarial infection rate=[(number of infected erythrocytes)/(total number of examined erythrocytes)]×100
For compounds showing growth inhibitory activity, the 50% growth inhibition concentration (EC50) was calculated using the following equation.
X1: concentration of the compound showing <50% inhibition rate (μM) Y1: inhibition rate at the concentration X1 X2: concentration of the compound showing >50% inhibition rate (μM) Y2: inhibition rate at the concentration X2

[1] = system: T. gondii strain 2F tachyzoites; test: Test for growth inhibitory activity against T. gondii (β-gal colorimetric proliferation assay in Vero cells); type: cell-based, Toxoplasma gondii; details: T. gondii 2F tachyzoites in Vero cells, 2 days
Method: To investigate growth inhibitory activity against T. gondii, the following various compounds were tested: inabenfide (Wako Pure Chemicals, Osaka, Japan), paclobutrazol (Wako Pure Chemicals, Osaka, Japan), uniconazole P (Wako Pure Chemicals, Osaka, Japan) and AMO-1618 (CALBIOCHEM, La Jolla, Calif.) as gibberellin inhibitors; thidiazuron (Wako Pure Chemicals, Osaka, Japan) and 6-benzyl aminopurine (Wako Pure Chemicals, Osaka, Japan) as cytokinins; and α-aminooxy acetic acid (Wako Pure Chemicals, Osaka, Japan) as an ethylene inhibitor.
For this test, T. gondii strain 2F tachyzoites were used. The strain 2F was established by transfection of the T. gondii strain RH with a β-galactosidase gene (β-gal, derived from Escherichia coli) [Reference: J. M. Dobrowolski and L. D. Sibley. Toxoplasma invasion of mammalian cells is powered by the actin cytoskeleton of the parasite. Cell 84, 933-939 (1996)]. The 2F strain was kindly provided by Dr. L. David Sibley (Washington University School of Medicine, St. Louis, Mo., US). As a host cell for the parasites, Vero cells were used. Vero cell cultures were incubated with RPMI 1640 medium containing 10% (v/v) FCS in 96-well plates for 2 days and then infected with 2.5×10^5 tachyzoites/well in RPMI 1640 medium containing 3% (v/v) FCS and various concentrations of the compounds. The tachyzoites were harvested after 2 days and the proliferation rate was monitored as a measure of β-gal activity in a colorimetric assay using chlorophenol red β-D-galactopyranoside. The proliferation rate of compound-untreated tachyzoites is set to 100% and the IC50 means the concentration of the compound that inhibits the proliferation rate by 50%.

[2] = Mice; Reported Data; cited from earlier work
[3] = Reported Data; cited from earlier work
[4] = P. falciparum 3D7, 3 days incubation, Table 1
[5] = Plasmodium falciparum, 3D7, Erythrocyte, 72 h

SMILES | EC50 (P. falciparum strain 3D7; [4]) | IC50 ([1]; read-out: IC50 Toxoplasma) | LD50 [2] | Mutagenesis [3] | EC50 (P. falciparum strain 3D7; [5]) | IC50 ([1]; Toxoplasma gondii, 48 h) | growth inhibition rate (Y1) (P. falciparum strain 3D7; concentration 10 μM (X1), FIG. 1) | growth inhibition rate (Y2) (P. falciparum strain 3D7; concentration 20 μM (X2), FIG. 1)
c1ccc(CNc2ncnc3nc[nH]c23)cc1 [6-Benzylaminopurine, 6-benzyl aminopurine] | 19 µM | > 300 µM | 1300 mg/kg | No | – | – | – | –
C/C(=C\CNc1ncnc2nc[nH]c12)CO [trans-Zeatin, trans-zeatin] | 651 µM | – | 1300 mg/kg | – | – | – | – | –
CC1=CCCC(C)(C)C1C=CC(C)[N+](C)(C)C (stereo not drawn) [FC-907, N,N,N-trimethyl-1-methyl-(2′,6′,6′-trimethylcyclohex-2′-en-1′-yl) prop-2-enylammonium iodide] | 4.26 µM | – | – | – | – | – | – | –
NOCC(=O)O [α-Aminooxy acetic Acid, α-aminooxy acetic acid] | – | – | – | – | 20.3 µM | 96.9 µM | – | –
CC(C)(C)[C@@H](O)[C@@H](Cc1ccc(Cl)cc1)n1cncn1 [Paclobutrazol, paclobutrazol] | – | – | >5000 mg/kg | – | 27.1 µM | 121 µM | – | –
Cc1cc(OC(=O)N2CCCCC2)c(C(C)C)cc1[N+](C)(C)C.[Cl-] [AMO-1618] | 10.3 µM | > 1000 µM | 0.36 mg/kg | – | – | – | 48.9 | 85.4
O=C(Nc1ccccc1)Nc1cnns1 [Thidiazuron, thidiazuron] | – | – | >5000 mg/kg | No | 17.5 µM | 74.5 µM | – | –
O=C(Nc1ccc(Cl)cc1C(O)c1ccccc1)c1ccncc1 (stereo not drawn) [Inabenfide, inabenfide] | – | – | >15000 mg/kg | No | 4.47 µM | 17 µM | – | –
CC(C)(C)[C@H](O)/C(=C\c1ccc(Cl)cc1)n1cncn1 [Uniconazole P, uniconazole P] | 25 µM | 97.4 µM | 1000 mg/kg | No | – | – | – | –
C/C(=C/CNc1ncnc2nc[nH]c12)CO [cis-Zeatin, cis-zeatin] | 742 µM | – | – | – | – | – | – | –
